Values quoted from earlier work, collected in US20260183243A1, “PHARMACEUTICAL COMPOSITIONS OF NOR-UDCA” (SHILPA MEDICARE LIMITED, priority 2022, published 2026).

Conditions: background statement, no test described

solubility in an aqueous medium: poorly soluble
Compound: C[C@H](CC(=O)O)[C@H]1CC[C@H]2[C@@H]3[C@@H](O)C[C@@H]4C[C@H](O)CC[C@]4(C)[C@H]3CC[C@]12C [Nor-UDCA, 24-nor-ursodeoxycholic acid]
